{"source": "patent US20200102349A1", "about": "“PEPTIDE REAGENTS AND METHODS FOR DETECTION AND TARGETING OF DYSPLASIA, EARLY CANCER AND CANCER” (THE REGENTS OF THE UNIVERSITY OF MICHIGAN, priority 2014, published 2020)", "key": {"[1]": {"system": "vascular endothelial growth factor A (VEGFA)", "sequence (P15692 207-311 limits assumed)": "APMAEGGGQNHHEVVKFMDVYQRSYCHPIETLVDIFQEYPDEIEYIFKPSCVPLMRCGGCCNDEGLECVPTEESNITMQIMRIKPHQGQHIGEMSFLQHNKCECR", "conditions": "n=14 BE patients, topical and systemic; cited from earlier work"}, "ErbB2": {"target": "T1, ErbB2 (Homo sapiens, UniProt P04626)", "T1 construct": "topically administered into the distal esophagus using a standard spray catheter; from tissue; host or cells: distal esophagus mucosa of Barrett's patients, in vivo", "experiment": "Multiplexed in vivo imaging of distal esophagus in patients, KSP*-IRDye800 channel", "protocol": "A multi-modal scanning fiber endoscope (mmSFE) was designed to collect fluorescence and reflectance concurrently. A custom fiber-coupled multi-laser system (SpectraTEC, Blue Sky Research) provides illumination at λex=638 and 785 nm concurrently through a single mode fiber (SMF) to excite QRH*-Cy5 and KSP*-IRDye800, respectively. A 0.4 mm diameter metal coated piezo tube actuator (Nagamine) generates a spiral scan pattern at an average maximum deflection angle of about 70°. Large core (500 μm diameter) multi-mode fibers (MMF) with high numerical aperture (NA=0.6, Mitsubishi Rayon) are arranged around the instrument periphery to maximize light collection.^38 The diameter and rigid length of the distal tip were designed to pass forward easily through the working channel of a standard upper endoscope.\nThe optics used to separate and collect fluorescence from each peptide was contained within the base station (VerAvanti). A notch filter (NF, # NF03-785E-25, Semrock) was used to attenuate the excitation beam at λ=785 nm. Reflectance at λ=[…] was deflected by a dichroic beam splitter (BS1, # FF652-Di02, Semrock) to a multi-pixel photon counter (MPPC1, SiPM, Hamamatsu) for detection. Fluorescence from QRH*-Cy5 was deflected by a second beam splitter (BS2, # Di02-R785, Semrock) centered at λ=785 nm through a bandpass filter (BPF, FF01-697/58, Semrock) that transmits between 668-726 nm for detection by MPPC2. Fluorescence from KSP*-IRDye800 passes through BS2 and long pass filter (LPF, # BLP01-785R, Semrock) with cutoff at λ=805 nm and is detected by MPPC3. Kinematic filter cubes (DFM1/M, ThorLabs) were used to mount and align the optics.\nConsecutive patients referred to Michigan Medicine for either evaluation or therapy of Barrett's neoplasia (LGD/HGD/EAC) were recruited. Inclusion criteria included: 1) history of Barrett's neoplasia, 2) medically able to tolerate upper endoscopy, and 3) age over 18. Exclusion criteria included: 1) history of esophagectomy and 2) on active chemotherapy or radiation protocol. The multiplexed imaging study was approved by the University of Michigan IRB, and was registered online at ClinicalTrials.gov (NCT03589443). […] Separate channels were used to record fluorescence images from QRH*-Cy5 and KSP*-IRDye800 and from reflectance at λ=638 nm. The conventional white light illumination was shut off during collection of fluorescence images to prevent interference. […]\nVideo streams with greater than 30 consecutive images (1 second) that had negligible artifacts, including debris, bubbles, pooling, and conventional white light, were extracted from the original recordings. Single frames from the target regions with high contrast and minimum motion blur and distortion were selected for intensity quantification. The frames were separated into two fluorescence channels and a co-registered reflectance image. Target/background (T/B) ratios were calculated for each fluorescence image as follows. […] Fluorescence regions with high intensity were segmented using the Chan-Vese algorithm,^39 where an active contour model was evolved iteratively to minimize the energy function, Eq. 1, defined by the weighted sum of the 1) boundary length, 2) area, and variance of intensity 3) inside and 4) outside of the segmented region. […]"}, "[2]": {"experiment": "Phase 1 first-in-human safety study, oral administration", "assay_type": "in vivo", "conditions": "n=25 human subjects, 0.5 mg or 1.2 mg", "protocol": "A first-in-human study was performed to establish clinical evidence of safety for each peptide. An Investigational New Drug (IND) application (sponsor DKT) was prepared, and submitted for review to the US Food and Drug Administration (FDA). […] The study protocols were reviewed and approved by the Institutional Review Board (IRB) at the University of Michigan. These studies, including NCT02574858 (QRH*-Cy5) and NCT03161418 (KSP*-IRDye800), were registered online at ClinicalTrials.gov. A total of n=25 subjects was recruited for each study. All enrolled patients provided written informed consent. A dose escalation study was performed. The first n=3 subjects were administered 0.5 mg of peptide reconstituted in 5 mL of normal saline (0.9%) per oral. […] An electrocardiogram (EKG) was performed and vital signs were monitored. […] No images were collected during the safety study."}, "[3]": {"experiment": "Stability of lyophilized cGMP peptides on storage", "assay_type": "physicochemical", "conditions": "KSP*-IRDye800 lyophilized, −20° C.; for Molecular: molecular weight by Q-TOF", "excerpt": "QRHKPRE (SEQ ID NO: 1) was labeled with Cy5 via a GGGSK (SEQ ID NO: 18) linker to prevent steric hindrance. This sequence was selected using phage display methods for specific binding to EGFR.^22 KSPNPRF (SEQ ID NO: 26) was labeled with IRDye800 via a GGGSC (SEQ ID NO: 27) linker, hereafter KSP*-IRDye800. This sequence was identified using a structural model for specific binding to ErbB2.^23 The fluorophores used were chosen to minimize spectral overlap between absorbance and emission. QRH*-Cy5 and KSP*-IRDye800 were synthesized using current good manufacturing practices (cGMP) methods. Peptide stability was monitored by visual appearance, purity (HPLC), and molecular weight over the duration of the study."}, "[4]": {"system": "Barrett's neoplasia (HGD/EAC)", "experiment": "Multiplexed in vivo imaging of distal esophagus in patients, both channels combined", "parameters": "species or system human", "conditions": "topical, 5 minutes incubation", "protocol": "A multi-modal scanning fiber endoscope (mmSFE) was designed to collect fluorescence and reflectance concurrently. A custom fiber-coupled multi-laser system (SpectraTEC, Blue Sky Research) provides illumination at λex=638 and 785 nm concurrently through a single mode fiber (SMF) to excite QRH*-Cy5 and KSP*-IRDye800, respectively. A 0.4 mm diameter metal coated piezo tube actuator (Nagamine) generates a spiral scan pattern at an average maximum deflection angle of about 70°. […]\nThe optics used to separate and collect fluorescence from each peptide was contained within the base station (VerAvanti). […] Fluorescence from QRH*-Cy5 was deflected by a second beam splitter (BS2, # Di02-R785, Semrock) centered at λ=785 nm through a bandpass filter (BPF, FF01-697/58, Semrock) that transmits between 668-726 nm for detection by MPPC2. Fluorescence from KSP*-IRDye800 passes through BS2 and long pass filter (LPF, # BLP01-785R, Semrock) with cutoff at λ=805 nm and is detected by MPPC3. […]\nConsecutive patients referred to Michigan Medicine for either evaluation or therapy of Barrett's neoplasia (LGD/HGD/EAC) were recruited. […] Separate channels were used to record fluorescence images from QRH*-Cy5 and KSP*-IRDye800 and from reflectance at λ=638 nm. The conventional white light illumination was shut off during collection of fluorescence images to prevent interference. […]"}, "[5]": {"experiment": "Pharmacology/toxicology study in rats, single dose oral gavage", "assay_type": "in vivo", "conditions": "for Blood tests (days 2 and 15) / Clinical signs / Necropsy (days 2 and 15) / Observe (morbidity, mortality, injury, body weights, food and water consumption) / Urinalysis: oral gavage", "protocol": "A rigorous pharmacology/toxicology study was performed in animals (MPI Research) for each peptide to provide pre-clinical evidence for safety. A total of 24 male and 24 female rats (CD®[Crl:CD® (SD)] (Charles River) were used in each study. At 8 weeks of age, the animals were randomly assigned to 4 groups, including 3 treatment and 1 control. Dose levels of 0.0086, 0.026, and 0.86 mg/kg were used for QRH*-Cy5, and 0.186, 0.32, and 1.08 mg/kg were used for KSP*-IRDye800. The control group received 10 mL/kg of PBS as vehicle. The vehicle and test articles were administered by single dose oral gavage. Clinical signs, including morbidity, mortality, and injury, were monitored twice daily. Laboratory tests and necropsy were evaluated in 3 animals/sex/dose on days 2 and 15."}}}
{"substance": "Bevacizumab: antibody specific for VEGFA, repurposed for diagnostic imaging by labeling with IRDye800", "values": [{"measurement": "increase in detection of early lesions using fluorescence compared with HD-WLE and NBI", "setting": "[1]", "result": "about 33%"}]}
{"substance": "Lys^1-Ser^2-Pro^3-Asn^4-Pro^5-Arg^6-Phe^7-Gly^8-Gly^9-Gly^10-Ser^11-Cys^12(IRDye800) [KSP*-IRDye800]", "values": [{"measurement": "mean (±SD) T/B ratio", "setting": "ErbB2; HGD (n=7) and EAC (n=6)", "result": "1.68±0.24"}, {"measurement": "T/B ratio", "setting": "ErbB2; LGD (n=1)", "result": 1.14}, {"measurement": "mean (±SD) T/B ratio", "setting": "ErbB2; SQ (n=3) and NDBE (n=6), topical, distal esophagus", "result": "1.28±0.14"}, {"measurement": "Accuracy", "setting": "ErbB2; T/B ratio from KSP*-IRDye800 alone, HGD/EAC vs SQ/NDBE/LGD, LOOCV", "result": 83, "unit": "%"}, {"measurement": "AUC", "setting": "ErbB2; T/B ratio from KSP*-IRDye800 alone, average of 1000 bootstrap samples", "result": 0.95}, {"measurement": "abnormalities in laboratory results, urinalysis, and EKG", "setting": "[2]", "result": "No abnormalities"}, {"measurement": "adverse events (AE)", "setting": "[2]", "result": "no adverse events"}, {"measurement": "Molecular", "setting": "[3]; time 0", "result": 2397.6}, {"measurement": "Molecular", "setting": "[3]; time 12", "result": 2397.5}, {"measurement": "Molecular", "setting": "[3]; time 24", "result": 2397.6}, {"measurement": "Molecular", "setting": "[3]; time 36", "result": 2397.6}, {"measurement": "Purity (HPLC)", "setting": "[3]; time 0", "result": 98.8, "unit": "%"}, {"measurement": "Purity (HPLC)", "setting": "[3]; time 6", "result": 98.8, "unit": "%"}, {"measurement": "Purity (HPLC)", "setting": "[3]; time 12", "result": 98.7, "unit": "%"}, {"measurement": "Purity (HPLC)", "setting": "[3]; time 18", "result": 98.9, "unit": "%"}, {"measurement": "Purity (HPLC)", "setting": "[3]; time 24", "result": 98.9, "unit": "%"}, {"measurement": "Purity (HPLC)", "setting": "[3]; time 30", "result": 98.7, "unit": "%"}, {"measurement": "Purity (HPLC)", "setting": "[3]; time 36", "result": 98.9, "unit": "%"}, {"measurement": "fluorescence from regions of HGD and EAC in vivo", "setting": "[4]", "result": "Increased fluorescence intensities"}, {"measurement": "Blood tests (days 2 and 15)", "setting": "[5]; KSP*-IRDye800 0.186 mg/kg", "result": "NAD"}, {"measurement": "Clinical signs", "setting": "[5]; KSP*-IRDye800 0.186 mg/kg", "result": "NAD"}, {"measurement": "Necropsy (days 2 and 15)", "setting": "[5]; KSP*-IRDye800 0.186 mg/kg", "result": "NAD"}, {"measurement": "Observe (morbidity, mortality, injury, body weights, food and water consumption)", "setting": "[5]; KSP*-IRDye800 0.186 mg/kg", "result": "NAD"}, {"measurement": "Urinalysis", "setting": "[5]; KSP*-IRDye800 0.186 mg/kg", "result": "NAD"}, {"measurement": "Blood tests (days 2 and 15)", "setting": "[5]; KSP*-IRDye800 0.32 mg/kg", "result": "NAD"}, {"measurement": "Clinical signs", "setting": "[5]; KSP*-IRDye800 0.32 mg/kg", "result": "NAD"}, {"measurement": "Necropsy (days 2 and 15)", "setting": "[5]; KSP*-IRDye800 0.32 mg/kg", "result": "NAD"}, {"measurement": "Observe (morbidity, mortality, injury, body weights, food and water consumption)", "setting": "[5]; KSP*-IRDye800 0.32 mg/kg", "result": "NAD"}, {"measurement": "Urinalysis", "setting": "[5]; KSP*-IRDye800 0.32 mg/kg", "result": "NAD"}, {"measurement": "Blood tests (days 2 and 15)", "setting": "[5]; KSP*-IRDye800 1.08 mg/kg", "result": "NAD"}, {"measurement": "Clinical signs", "setting": "[5]; KSP*-IRDye800 1.08 mg/kg", "result": "NAD"}, {"measurement": "Necropsy (days 2 and 15)", "setting": "[5]; KSP*-IRDye800 1.08 mg/kg", "result": "NAD"}, {"measurement": "Observe (morbidity, mortality, injury, body weights, food and water consumption)", "setting": "[5]; KSP*-IRDye800 1.08 mg/kg", "result": "NAD"}, {"measurement": "Urinalysis", "setting": "[5]; KSP*-IRDye800 1.08 mg/kg", "result": "NAD"}, {"measurement": "acute adverse effects in animal pharmacology/toxicology study (GLP)", "setting": "[5]; single dose oral gavage", "result": "No acute adverse effects"}]}
